The values below are quoted from earlier work in patent EP4088834A1, “INORGANIC COATED SAND” (Kao Corporation, priority 2020, dated 2021).

For this data set the following is noted: 25°C.

Regarding `[O]=[Ca]` [calcium oxide], the solubility in water was 1190 µg/mL.
